# Laboratory results reported in paper PMC7743948, “D-LL-31 enhances biofilm-eradicating effect of currently used antibiotics for chronic rhinosinusitis and its immunomodulatory activity on human lung epithelial cells” (PLoS ONE, 2020).
# Square brackets hold non-standard residues; d marks the D form. Peptide text beside a SMILES is read from it.
# Experiments:
# P. aeruginosa biofilm [1] = experiment: microbe, parasite or virus in culture; conditions: biofilm, 24 h
# Protocol: (§1) The effects of both conventional antibiotics and AMPs against bacteria under biofilm-stimulating condition were determined using a transferable solid phase (TSP) pin lid, which resembles the ‘Calgary’ biofilm device as previously described with some modifications. Each strain (10^7 CFU/ml) was added to sterile 96-well plates (Nunclon™), then covered by a TSP pin lid (NUNC™, Roskilde, Denmark), and further incubated at 37 °C for 24 h. […] Additionally, the effect of TOB (2–836 μM or 1–391 μg/ml) against P. aeruginosa biofilm was also investigated. Then the plates were statically incubated at 37 °C for 24 h. A well free of antimicrobial agent was used as a control. After 24 h, bacterial survival was determined using the plate count technique on NA (Himedia®). The percentage killing of each antimicrobial agent was calculated using the formula [1 − (CFU sample/CFU control)] × 100% [15, 19]. […] Each experiment was performed independently three times in duplicate.
# K. pneumoniae biofilm [2] = experiment: microbe, parasite or virus in culture; conditions: biofilm, 24 h
# Protocol: as §1
# S. epidermidis biofilm [3] = experiment: microbe, parasite or virus in culture
# Protocol: as §1
# [4] = tested on: A549 human lung epithelial cells; experiment: Cytokine antibody array of culture supernatant; type: cell-based; conditions: 10 μM, 24 h
# Protocol: The immunomodulatory effect of D-LL-31 on A549 human lung epithelial cells was investigated using cytokine antibody arrays. […] Cells in medium without peptide were used as a control. After incubation, the secreted cytokines in culture supernatant were detected using a human angiogenesis antibody array kit (AAH-ANG-1000-4, Norcross, GA) according to the manufacturer's instructions. […] Each experiment was performed independently two times in duplicate.
# S. epidermidis biofilm [5] = experiment: Checkerboard synergy of D-LL-31 with antibiotics on biofilm; type: cell-based, Staphylococcus epidermidis; conditions: D-LL-31 combined with AMX; IC50 alone compared with concentration of combination
# Protocol: (§2) Bacterial viability in each interaction was determined using the plate count technique. The fractional inhibitory concentration index (FICI) values were calculated and interpreted in terms of synergism/antagonism as previously described. Each experiment was performed independently three times in duplicate.
# [6] = tested on: all tested isolates (K. pneumoniae, S. epidermidis, P. aeruginosa, P. aeruginosa ATCC 27853); experiment: Killing of planktonic bacteria (CFU count), statements for all tested isolates; type: cell-based; conditions: 1 μM, within 1 h, 5 x 10^5 CFU/ml, all tested strains
# Protocol: A bacterial suspension without peptide served as a control. The samples were then serially diluted and cultivated on NA (Himedia®) and incubated for 24 h to allow colony counting. […] Each experiment was performed independently three times in duplicate.
# all bacteria in biofilm = experiment: Killing of bacteria grown as biofilm (TSP pin lid), statements for all bacteria; type: cell-based
# Protocol: as §1
# K. pneumoniae biofilm [7] = experiment: Checkerboard synergy of D-LL-31 with antibiotics on biofilm; type: cell-based, Klebsiella pneumoniae; conditions: D-LL-31 combined with AMX; IC50 alone compared with concentration of combination
# Protocol: as §2
# [8] = tested on: P. aeruginosa biofilm matrix; experiment: Biofilm matrix reduction (AAA-model, CLSM, COMSTAT biomass); type: cell-based, Pseudomonas aeruginosa; conditions: combination of D-LL-31 (0.5 μM) and TOB (0.2 μM), 24 h
# Protocol: (§3) Briefly, 1.5 ml of each overnight culture (10^8 CFU/ml) was added to a 24-well tissue culture plate (Nunclon™). The plate was covered with a sterile stainless-steel lid containing glass coverslips and aerobically incubated at 37°C for 24 h. […] All tested conditions were incubated at 37°C for 24 h. A well free of antimicrobial agent was used as a control. Following incubation, biofilms were fixed with 2.5% glutaraldehyde (Sigma-Aldrich) at 25°C for 3 h. The fixed bacterial biofilms on glass coverslips were stained with 50 μg/ml Alexa Fluor® 488 (Invitrogen, Carlsbad, CA) for 30 min. This stain reacts with exopolysaccharide matrixes of the biofilm. The glass coverslips were then mounted with 80% glycerol and the stained cells were photographed using a confocal laser-scanning microscope (CLSM) (TCS SP8-Leica Microsystems, Wetzlar, Germany). […] Each experiment was performed independently three times in duplicate.
# [9] = tested on: hRBCs (human red blood cells); conditions: cited from earlier work
# P. aeruginosa biofilm [10] = experiment: Checkerboard synergy of D-LL-31 with antibiotics on biofilm; type: cell-based, Pseudomonas aeruginosa; conditions: IC50 alone compared with concentration of combination
# Protocol: as §2
# [11] = tested on: A549 cells (human lung epithelial cells); conditions: 25 µM
# Protocol: Briefly, A549 cells were maintained in RPMI-1640 (HyClone™, Marlborough, MA) with 10% fetal bovine serum (FBS) (HyClone™) and sub-cultured by standard methods using trypsin/EDTA (0.25% trypsin, 0.1% EDTA) (Corning™, Corning, NY). A standard curve of A549 cells (100–50000 cells/well) was constructed as previously described with some modification [43]. For MTT assay, cells were plated at a density of 2.5×10^4 cells/well in 96-well plates and grown overnight. […] Prepared A549 cells were then exposed to the diluted peptides for 24 h at 37°C, 5% CO2 atmosphere. Negative controls received either culture medium or PPB. Cells with 2% dimethyl sulfoxide (DMSO) (Sigma-Aldrich) were used as positive control. Cytotoxicity was assessed using MTT (0.5 mg/ml) according to the manufacturer's instructions (Sigma-Aldrich). Absorbance was measured at a wavelength of 570 nm with background subtraction at 630–690 nm. Then absorbance values from the MTT were converted to cells/well using a standard curve. Cell viabilities were calculated using the formula; [mean of cells in treated well]/[mean of cells in control well] × 100%. Each experiment was performed independently three times in triplicate.
# [12] = tested on: biofilm matrix of all tested strains; experiment: Biofilm matrix reduction (AAA-model, CLSM, COMSTAT biomass), statements for all tested strains; type: cell-based
# Protocol: as §3
compound,measurement,setting,value
CC[C@@H](C)[C@@H](NC(=O)[C@@H](CCCCN)NC(=O)[C@@H](CCC(=O)O)NC(=O)[C@@H](CCCCN)NC(=O)[C@@H](CO)NC(=O)[C@@H](CCCCN)NC(=O)[C@@H](CCCNC(=N)N)NC(=O)[C@@H](Cc1ccccc1)NC(=O)[C@@H](Cc1ccccc1)NC(=O)[C@@H](CC(=O)O)NC(=O)CNC(=O)[C@@H](CC(C)C)NC(=O)[C@H](N)CC(C)C)C(=O)NCC(=O)N[C@H](CCCCN)C(=O)N[C@H](CCC(=O)O)C(=O)N[C@H](Cc1ccccc1)C(=O)N[C@H](CCCCN)C(=O)N[C@H](CCCNC(=N)N)C(=O)N[C@@H](C(=O)N[C@@H](C(=O)N[C@H](CCC(N)=O)C(=O)N[C@H](CCCNC(=N)N)C(=O)N[C@@H](C(=O)N[C@H](CCCCN)C(=O)N[C@H](CC(=O)O)C(=O)N[C@H](Cc1ccccc1)C(=O)N[C@H](CC(C)C)C(=O)N[C@H](CCCNC(=N)N)C(=O)N[C@H](CC(N)=O)C(=O)N[C@H](CC(C)C)C(=O)O)[C@H](C)CC)C(C)C)[C@H](C)CC [D-LL-31] (H-[dL][dL]G[dD][dF][dF][dR][dK][dS][dK][dE][dK][dI]G[dK][dE][dF][dK][dR][dI][dV][dQ][dR][dI][dK][dD][dF][dL][dR][dN][dL]-OH; N-terminus and C-terminus assumed),IC50,P. aeruginosa biofilm [1],4000 nM
same,IC50,K. pneumoniae biofilm [2],600 nM
same,killing activity compared with all tested peptides,"S. epidermidis biofilm [3]; 1.56–25 μM, P < 0.05, one-way ANOVA",significantly higher
same,IC50,"S. epidermidis biofilm [3]; biofilm, 24 h",500 nM
same,expression of IFN-γ,[4],not found
same,expression of IL-6,[4],did not induce
same,"levels of IL-4, IL-8, TNF-α and GRO-a, b and g",[4],no significant change
same,ENA-78 secretion relative to controls,[4]; P < 0.05,significantly secreted
same,TIMP-2 in culture supernatant,[4]; P < 0.05,significantly elevated
same,Fold decrease of IC50 values,S. epidermidis biofilm [5],16 fold
same,"killing of bacterial cells, in words",[6],completely killed
same,IC50,"all bacteria in biofilm; 24 h biofilm, 24 h, read-out: IC50 values, range over all bacteria in biofilm",500 to 4000 nM
same,"IC70 values, range","all bacteria in biofilm; D-LL-31 alone and in combination with antibiotics, biofilm-stimulating condition",800 to 8700 nM
same,IC90,"all bacteria in biofilm; bacteria grown as biofilm, read-out: IC90 values, range",1000 to 25000 nM
same,Fold decrease of IC50 values,K. pneumoniae biofilm [7],8 fold
same,biofilm matrix relative to controls,[8],statistically significant reduction
same,hemolytic activity,[9],less than 1%
same,Fold decrease of IC50 values,P. aeruginosa biofilm [10]; D-LL-31 combined with AMX,16 fold
same,Fold decrease of IC50 values,P. aeruginosa biofilm [10]; D-LL-31 combined with TOB,8 fold
same,viable cells,[11],more than 80%
same,biofilm biomass relative to controls,"[12]; D-LL-31 in combination with antibiotics, 24 h, P < 0.001",Significant decreases
same,biofilm biomass relative to controls,"[12]; D-LL-31 treatment alone at IC50, 24 h, P < 0.01",Significant decreases
same,biofilm matrix relative to controls,"[12]; combination of D-LL-31 with AMX, 24 h, all tested strains",distinct decrease
